ChEMBL document CHEMBL4406869, “Benzo[b]thiophene-thiazoles as potent anti-Toxoplasma gondii agents: Design, synthesis, tyrosinase/tyrosine hydroxylase inhibitors, molecular docking study, and antioxidant activity” (Eur J Med Chem, 2019)

Assays:
L929 = test: Cytotoxicity against mouse L929 cells assessed as reduction in cell viability after 24 hrs by MTT assay; format: cell-based; conditions: l929, 24 h
Toxoplasma gondii [1] = test: (§1) Antiparasitic activity against Toxoplasma gondii RH tachyzoites infected in human Hs27 cells assessed as inhibition of parasitic growth preincubated for 24 hrs followed by [5,6-3H]uracil addition and measured after 72 hrs by liquid scintillation counting analysis; format: functional, organism-based
[2] = Selectivity ratio of CC30 for cytotoxicity against mouse L929 cells to IC50 for antiparasitic activity against Toxoplasma gondii RH infected in human Hs27 cells; format: toxicity, cell-based
Toxoplasma gondii [3] = test: (§2) Antiparasitic activity against Toxoplasma gondii ME49 tachyzoites infected in human Hs27 cells assessed as inhibition of parasitic growth preincubated for 24 hrs followed by [5,6-3H]uracil addition and measured after 72 hrs by liquid scintillation counting analysis; format: functional, organism-based
[4] = Selectivity ratio of CC30 for cytotoxicity against mouse L929 cells to IC50 for antiparasitic activity against Toxoplasma gondii Me49 infected in human Hs27 cells; format: toxicity, cell-based
[5] = Cytotoxicity against mouse L929 cells assessed as cell viability at 100 ug/ml after 24 hrs by MTT assay relative to control; format: cell-based; conditions: read-out: Activity
[6] = Cytotoxicity against mouse L929 cells assessed as cell viability at 400 ug/ml after 24 hrs by MTT assay relative to control; format: cell-based; conditions: read-out: Activity
[7] = Cytotoxicity against mouse L929 cells assessed as cell viability at 200 ug/ml after 24 hrs by MTT assay relative to control; format: cell-based; conditions: read-out: Activity
[8] = Cytotoxicity against mouse L929 cells assessed as cell viability at 50 ug/ml after 24 hrs by MTT assay relative to control; format: cell-based; conditions: read-out: Activity
[9] = Cytotoxicity against mouse L929 cells assessed as cell viability at 25 ug/ml after 24 hrs by MTT assay relative to control; format: cell-based; conditions: read-out: Activity
[10] = Cytotoxicity against mouse L929 cells assessed as cell viability at 12.5 ug/ml after 24 hrs by MTT assay relative to control; format: cell-based; conditions: read-out: Activity
[11] = Cytotoxicity against mouse L929 cells assessed as cell viability at 6.25 ug/ml after 24 hrs by MTT assay relative to control; format: cell-based; conditions: read-out: Activity
[12] = Cytotoxicity against mouse L929 cells assessed as cell viability at 3.125 ug/ml after 24 hrs by MTT assay relative to control; format: cell-based; conditions: read-out: Activity
[13] = Cytotoxicity against mouse L929 cells assessed as cell viability at 1.56 ug/ml after 24 hrs by MTT assay relative to control; format: cell-based; conditions: read-out: Activity
[14] = Cytotoxicity against mouse L929 cells assessed as cell viability at 0.78 ug/ml after 24 hrs by MTT assay relative to control; format: cell-based; conditions: read-out: Activity
Toxoplasma gondii [15] = test: as §1, with “reduction in parasite proliferation at 100 ug/mL” for “inhibition of parasitic growth”, “analysis relative to control” for “analysis”; format: functional; design: scale not given: the % may be the effect or the level left
Toxoplasma gondii [16] = test: as §2, with “reduction in parasite proliferation at 100 ug/mL” for “inhibition of parasitic growth”, “analysis relative to control” for “analysis”; format: functional; design: scale not given: the % may be the effect or the level left
Toxoplasma gondii [17] = test: (§3) Antiparasitic activity against Toxoplasma gondii RH tachyzoites infected in human Hs27 cells assessed as reduction in parasite proliferation at 50 ug/mL preincubated for 24 hrs followed by [5,6-3H]uracil addition and measured after 72 hrs by liquid scintillation counting analysis relative to control; format: functional; design: scale not given: the % may be the effect or the level left
Toxoplasma gondii [18] = test: as §3, with “ME49” for “RH”; format: functional; design: scale not given: the % may be the effect or the level left
Toxoplasma gondii [19] = test: (§4) Antiparasitic activity against Toxoplasma gondii RH tachyzoites infected in human Hs27 cells assessed as reduction in parasite proliferation at 25 ug/mL preincubated for 24 hrs followed by [5,6-3H]uracil addition and measured after 72 hrs by liquid scintillation counting analysis relative to control; format: functional; design: scale not given: the % may be the effect or the level left
Toxoplasma gondii [20] = test: as §4, with “ME49” for “RH”; format: functional; design: scale not given: the % may be the effect or the level left
Toxoplasma gondii [21] = test: as §3, with “12.5” for “50”; format: functional; design: scale not given: the % may be the effect or the level left
Toxoplasma gondii [22] = test: as §3, with “ME49” for “RH”, “12.5” for “50”; format: functional; design: scale not given: the % may be the effect or the level left
Toxoplasma gondii [23] = test: as §3, with “6.25” for “50”; format: functional; design: scale not given: the % may be the effect or the level left
Toxoplasma gondii [24] = test: as §3, with “ME49” for “RH”, “6.25” for “50”; format: functional; design: scale not given: the % may be the effect or the level left
Toxoplasma gondii [25] = test: as §3, with “3.125” for “50”; format: functional; design: scale not given: the % may be the effect or the level left
Toxoplasma gondii [26] = test: as §3, with “ME49” for “RH”, “3.125” for “50”; format: functional; design: scale not given: the % may be the effect or the level left
Toxoplasma gondii [27] = test: as §3, with “1.56” for “50”; format: functional; design: scale not given: the % may be the effect or the level left
Toxoplasma gondii [28] = test: as §3, with “ME49” for “RH”, “1.56” for “50”; format: functional; design: scale not given: the % may be the effect or the level left
Toxoplasma gondii [29] = test: as §3, with “0.78” for “50”; format: functional; design: scale not given: the % may be the effect or the level left
Toxoplasma gondii [30] = test: as §3, with “ME49” for “RH”, “0.78” for “50”; format: functional; design: scale not given: the % may be the effect or the level left
Toxoplasma gondii [31] = test: as §3, with “0.39” for “50”; format: functional; design: scale not given: the % may be the effect or the level left
Tyrosinase = biological target: T1, Tyrosinase (Agaricus bisporus, UniProt O42713); test: Inhibition of mushroom tyrosinase using L-dopa as substrate by spectrophotometric method
T1 sequence (O42713 whole entry): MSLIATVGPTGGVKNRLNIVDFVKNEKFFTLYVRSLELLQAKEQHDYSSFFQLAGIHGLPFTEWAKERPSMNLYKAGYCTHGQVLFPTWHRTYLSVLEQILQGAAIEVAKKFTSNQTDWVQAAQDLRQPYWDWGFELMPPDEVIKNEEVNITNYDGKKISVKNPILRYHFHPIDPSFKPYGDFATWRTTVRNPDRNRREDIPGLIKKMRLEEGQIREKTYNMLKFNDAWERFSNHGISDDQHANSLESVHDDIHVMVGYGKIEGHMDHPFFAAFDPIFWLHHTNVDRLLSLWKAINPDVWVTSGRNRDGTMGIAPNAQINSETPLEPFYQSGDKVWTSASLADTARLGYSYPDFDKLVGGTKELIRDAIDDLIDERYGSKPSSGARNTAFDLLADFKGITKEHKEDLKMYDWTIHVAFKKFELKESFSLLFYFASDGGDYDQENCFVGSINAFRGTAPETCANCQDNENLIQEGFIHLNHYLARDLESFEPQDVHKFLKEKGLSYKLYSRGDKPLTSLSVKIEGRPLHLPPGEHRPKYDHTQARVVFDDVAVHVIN

[32] = Antioxidant activity assessed as DPPH radical scavenging activity incubated for 30 mins under dark condition by Uv-vis spectrophotometric method; format: functional
[33] = Potency index, ratio of butylated hydroxytoluene IC50 to test compound IC50 for antioxidant activity assessed as DPPH radical scavenging activity; format: functional

Compound: COc1cc(Cc2cnc(N)nc2N)cc(OC)c1OC [TRIMETHOPRIM]
- CC30 (L929): 55.11 µM
- IC50 (Toxoplasma gondii [1]): 41.8 µM
- selectivity ratio [2]: 1.32
- IC50 (Toxoplasma gondii [3]): 39.2 µM
- selectivity ratio [4]: 1.4

Compound: C(=N\Nc1nc(C23CC4CC(CC(C4)C2)C3)cs1)/c1cc2ccccc2s1
- viability at 24 h, 100 ug/ml [5]: 89%
- viability at 24 h, 400 ug/ml [6]: 76.8%
- CC30 (L929): 1333.46 µM
- IC50 (Toxoplasma gondii [1]): 51.9 µM
- viability at 24 h, 200 ug/ml [7]: 81.8%
- viability at 24 h, 50 ug/ml [8]: 90.7%
- viability at 24 h, 25 ug/ml [9]: 98.3%
- viability at 24 h, 12.5 ug/ml [10]: 96.5%
- viability at 24 h, 6.25 ug/ml [11]: 101%
- viability at 24 h, 3.125 ug/ml [12]: 104%
- viability at 24 h, 1.56 ug/ml [13]: 105%
- viability at 24 h, 0.78 ug/ml [14]: 107%
- Activity (Toxoplasma gondii [15]): 6.32%
- Activity (Toxoplasma gondii [16]): 0.53%
- Activity (Toxoplasma gondii [17]): 28.7%
- Activity (Toxoplasma gondii [18]): 1.17%
- Activity (Toxoplasma gondii [19]): 46.12%
- Activity (Toxoplasma gondii [20]): 5.61%
- Activity (Toxoplasma gondii [21]): 58.29%
- Activity (Toxoplasma gondii [22]): 7.85%
- Activity (Toxoplasma gondii [23]): 83.32%
- Activity (Toxoplasma gondii [24]): 9.6%
- Activity (Toxoplasma gondii [25]): 90.86%
- Activity (Toxoplasma gondii [26]): 25.5%
- Activity (Toxoplasma gondii [27]): 101.85%
- Activity (Toxoplasma gondii [28]): 49.76%
- Activity (Toxoplasma gondii [29]): 92.05%
- Activity (Toxoplasma gondii [30]): 101.96%
- Activity (Toxoplasma gondii [31]): 1.24%
- selectivity ratio [2]: 25.7
- IC50 (Toxoplasma gondii [3]): 8.74 µM
- selectivity ratio [4]: 153
- IC50 (Tyrosinase): 329 µM
- IC50 [32]: 15.5 µM

Compound: Nc1ccc(S(=O)(=O)Nc2ncccn2)cc1 [SULFADIAZINE]
- CC30 (L929): >= 5000 uM
- selectivity ratio [2]: 0.46
- IC50 (Toxoplasma gondii [3]): 13000 µM
- selectivity ratio [4]: 0.39

Compound: Ic1ccc(-c2csc(N/N=C/c3cc4ccccc4s3)n2)cc1
- CC30 (L929): 946.2 µM
- IC50 (Tyrosinase): 431 µM

Compound: Clc1ccc(-c2csc(N/N=C/c3cc4ccccc4s3)n2)cc1
- CC30 (L929): 1255.05 µM
- IC50 (Tyrosinase): 390 µM

Compound: Cc1cc(C(C)(C)C)c(O)c(C(C)(C)C)c1 [BUTYLATED HYDROXYTOLUENE]
- IC50 [32]: 180 µM

Compound: O=c1oc2ccccc2cc1-c1csc(N/N=C/c2cc3ccccc3s2)n1
- IC50 [32]: 15.9 µM
- Ratio IC50 [33]: 10

Compound: Brc1ccc(-c2csc(N/N=C/c3cc4ccccc4s3)n2)cc1
- CC30 (L929): 283.56 µM
- IC50 (Tyrosinase): 433 µM

Compound: Fc1ccc(-c2csc(N/N=C/c3cc4ccccc4s3)n2)cc1
- CC30 (L929): 1385.75 µM
- IC50 (Tyrosinase): 396 µM

Compound: Cc1ccc(-c2csc(N/N=C/c3cc4ccccc4s3)n2)cc1
- CC30 (L929): 884.28 µM
- IC50 (Tyrosinase): 466 µM
